For 33 molecules, EC50 results are on record in patent publication US8354419B2, “Benzimidazole analogues for the treatment or prevention of flavivirus infections” (Vertex Pharmaceuticals Incorporated, priority 2009, dated 2013).

pEC50: −log10 of the molar value.

For the first experiment, the system named is HCV (Ib) RNA replication. Nature of the experiment: Cell-based luciferase reporter HCV (1b) RNA replication assay (replicon cell lines Huh-7 5.2 and ET). The note with it: HCV 1b genotype replicon, luciferase readout, 4 days incubation; read-out: EC50_1b. Also on record: species or system Hepatitis C virus. Put shortly:
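Compounds were tested at eleven concentrations in duplicate over 4 days at 37 °C, 5% CO2. The cells were luciferase-reporter HCV 1b replicon lines 5.2 (NS5A adaptive mutation) or ET (NS4B mutation). Luminescence of lysates was measured, and IC50s were derived by nonlinear curve fitting.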
In general terms: In a reporter assay the amount or activity of a reporter protein is the signal.
For the molecule `COC(=O)NC(C(=O)N1CCCC1c1nc2cc(-c3ccc(-c4ccc5nc(C6CCCN6C(=O)C(NC(=O)OC)C(C)(C)C)[nH]c5c4)cc3)ccc2[nH]1)C(C)(C)C` (stereo not drawn) [Compound 191], the pEC50 was at least 8.30.

Staying with this experiment, now noted: Hepatitis C virus, Huh-7, 96 h, HCV 1b genotype replicon, luciferase readout, 4 days incubation; read-out: EC50_1b.
On to `O=C(N1CCOCC1)N1CCC[C@H]1c1nc2cc(C#Cc3ccc4[nH]c([C@@H]5CCCN5C(=O)N5CCOCC5)nc4c3)ccc2[nH]1` [Compound 75], for which the pEC50 is at least 8.30.
Still for that read-out and setting: for `COC(=O)N[C@H](C(=O)N1C[C@@H](C)C[C@H]1c1nc2cc(-c3cc4sc(-c5ccc6nc([C@@H]7C[C@H](C)CN7C(=O)[C@@H](NC(=O)OC)C(C)C)n(C)c6c5)cc4s3)ccc2[nH]1)C(C)C` [Compound 323] the value was at least 8.30; for `COC(=O)N[C@H](C(=O)N1CCC[C@H]1c1nc2ccc(-c3cccc(-c4ccc5nc([C@@H]6CCCN6C(=O)[C@@H](NC(=O)OC)C(C)C)[nH]c5c4)c3)cc2[nH]1)C(C)C` [Compound 2, ((S)-1-{(S)-2-[5-(3-{2-[(S)-1-((S)-2-Methoxycarbonylamino-3-methyl-butyryl)-pyrrolidin-2-yl]-1H-benzoimidazol-5-yl}-phenyl)-1H-benzoimidazol-2-yl]-pyrrolidine-1-carbonyl}-2-methyl-propyl)-carbamic acid methyl ester], 5.30 to 8.30.
Still for that read-out and setting: to `COC(=O)N[C@H](C(=O)N1CCC[C@H]1c1nc2cc(-c3ccc(-c4ccc5nc([C@@H]6CCCN6C(=O)[C@@H](NC(=O)OC)[C@@H](C)OC)[nH]c5c4)c4c3OCO4)ccc2[nH]1)[C@@H](C)OC` [Compound 185] belongs at least 8.30.
In the case of `CC(C)[C@H](NC(=O)Cc1c[nH]c2ccccc12)C(=O)N1CCC[C@H]1c1nc2cc(C#Cc3ccc4[nH]c([C@@H]5CCCN5C(=O)[C@@H](NC(=O)Cc5c[nH]c6ccccc56)C(C)C)nc4c3)ccc2[nH]1` [Compound 89], the pEC50 is 5.30 to 8.30.
On the same count and under the same terms, to `COC(=O)N[C@@H](C)C(=O)N1CCC[C@H]1c1nc2cc(C#Cc3ccc4[nH]c([C@@H]5CCCN5)nc4c3)ccc2[nH]1` [Compound 57] belongs 5.30 to 8.30; to `COC(=O)N[C@H](C(=O)N1C[C@H](F)C[C@H]1c1nc2cc(-c3ccc(-c4ccc5nc([C@@H]6C[C@@H](F)CN6C(=O)[C@@H](NC(=O)OC)C(C)C)[nH]c5c4)cc3)ccc2[nH]1)C(C)C` [Compound 165], at least 8.30.
For `CC[C@H](NC(=O)OC)C(=O)N1CCC[C@H]1c1nc2cc(C#Cc3ccc4[nH]c([C@@H]5CCCN5C(=O)[C@H](CC)NC(=O)OC)nc4c3)ccc2[nH]1` [Compound 118], the pEC50 was at least 8.30.
Take `COC(=O)N(C)[C@H](C(=O)N1C[C@@H](C)C[C@H]1c1nc2cc(-c3ccc(-c4ccc5[nH]c([C@@H]6C[C@H](C)CN6C(=O)[C@@H](Nc6ncccn6)C(C)C)nc5c4)cc3)ccc2[nH]1)C(C)C` [Compound 289]: the pEC50 is at least 8.30.
On the same count and under the same terms, for `CC(C)(C)OC(=O)N1CCN(C(=O)OCc2ccccc2)[C@H](c2nc3cc(C#Cc4ccc5[nH]c([C@@H]6CCCCN6C(=O)OCc6ccccc6)nc5c4)ccc3[nH]2)C1` [Compound 28, (S)-2-{5-[2-((S)-1-Benzyloxycarbonyl-piperidin-2-yl)-1H-benzoimidazol-5-ylethynyl]-1H-benzoimidazol-2-yl}-piperazine-1,4-dicarboxylic acid 1-benzyl ester 4-tert-butyl ester] the value was 5.30 to 8.30.
For the molecule `O=C1O[C@@H]2C[C@@H]3C[C@@H]2[C@@H]1[C@H]3C(=O)N1CCC[C@H]1c1nc2cc(-c3ccc(-c4ccc5[nH]c([C@@H]6CCCN6C(=O)[C@H]6[C@H]7C[C@@H]8[C@H]6C(=O)O[C@@H]8C7)nc5c4)cc3)ccc2[nH]1` [Compound 230], the pEC50 is 5.30 to 8.30.
Still for that read-out and setting: for `COC(=O)N[C@H](C(=O)N1C[C@H](C)C[C@H]1c1nc2cc(-c3ccc(-c4ccc5[nH]c([C@@H]6C[C@@H](C)CN6C(=O)[C@@H](NC(=O)OC)C(C)C)nc5c4)cc3)ccc2[nH]1)C(C)C` [Compound 248] the value was at least 8.30; for `COC(=O)N[C@H](C(=O)N1CCC[C@H]1c1nc2ccc(-c3cn(-c4ccc5nc([C@@H]6CCCN6C(=O)[C@@H](NC(=O)OC)C(C)C)[nH]c5c4)nn3)cc2[nH]1)C(C)C` [Compound 21, ((S)-1-{(S)-2-[6-(1-{2-[(S)-1-((S)-2-Methoxycarbonylamino-3-methyl-butyryl)-pyrrolidin-2-yl]-3H-benzoimidazol-5-yl}-1H-[1,2,3]triazol-4-yl)-1H-benzoimidazol-2-yl]-pyrrolidine-1-carbonyl}-2-methyl-propyl)-carbamic acid methyl ester], at least 8.30; for `O=C(CC1CCOCC1)N1CCC[C@H]1c1nc2cc(C#Cc3ccc4[nH]c([C@@H]5CCCN5C(=O)CC5CCOCC5)nc4c3)ccc2[nH]1` [Compound 106], 5.30 to 8.30.
Still for that read-out and setting: for `COC(=O)N[C@H](C(=O)N1CCC[C@H]1c1nc2cc(-c3ccc(-c4ccc5nc([C@@H]6CCCN6C(=O)[C@@H](NC(=O)OC)C(C)C)[nH]c5c4)c4c3OCO4)ccc2[nH]1)C(C)C` [Compound 146] the value was at least 8.30; for `COC(=O)N[C@H](C(=O)N1CCC[C@H]1c1nc2cc(-c3ccc(-c4ccc5[nH]c([C@@H]6CCCN6C(=O)[C@@H](NC(=O)OC)C(C)C)nc5c4)c4c3OC(F)(F)O4)ccc2[nH]1)C(C)C` [Compound 221], at least 8.30; for `CC(C)C(NC(=O)C1CCCCC1)C(=O)N1CCC[C@H]1c1nc2cc(C#Cc3ccc4[nH]c([C@@H]5CCCN5C(=O)C(NC(=O)C5CCCCC5)C(C)C)nc4c3)ccc2[nH]1` (stereo partly drawn) [Compound 85], 5.30 to 8.30.
As for `COC(=O)N[C@H](C(=O)N1C[C@@H](C)C[C@H]1c1nc2cc(-c3ccc(-c4ccc5[nH]c([C@@H]6C[C@H](C)CN6C(=O)[C@@H](NC(=O)OC)C(C)C)nc5c4)c4nsnc34)ccc2[nH]1)C(C)C` [Compound 304], the pEC50 was at least 8.30.
As to `COC(=O)N(C)[C@H](C(=O)N1CCC[C@H]1c1nc2cc(-c3ccc(-c4ccc5nc([C@@H]6CCCN6C(=O)[C@H](C(C)C)N(C)C(=O)OC)[nH]c5c4)cc3)ccc2[nH]1)C(C)C` [Compound 4, [(S)-1-((S)-2-{5-[4-(2-{(S)-1-[(S)-2-(Methoxycarbonyl-methyl-amino)-3-methyl-butyryl]-pyrrolidin-2-yl}-1H-benzoimidazol-5-yl)-phenyl]-1H-benzoimidazol-2-yl}-pyrrolidine-1-carbonyl)-2-methyl-propyl]-methyl-carbamic acid methyl ester], the pEC50 is at least 8.30.
`COC(=O)N[C@@H](C(=O)N1CCC[C@H]1c1nc2cc(-c3ccc(-c4ccc5[nH]c([C@@H]6CCCN6C(=O)[C@H](NC(=O)OC)C(C)C)nc5c4)nn3)ccc2[nH]1)C(C)C` [Compound 162]: the pEC50 was at least 8.30.
Same read-out and setting: for `CC(C)(C)OC(=O)N1CC(F)(F)C[C@H]1C(=O)N1CCC[C@H]1c1nc2cc(C#Cc3ccc4[nH]c([C@@H]5CCCN5C(=O)[C@@H]5CC(F)(F)CN5C(=O)OC(C)(C)C)nc4c3)ccc2[nH]1` [Compound 114] the value was 5.30 to 8.30.
In the case of `COC(=O)N[C@H](C(=O)N1C[C@@H](C)C[C@H]1c1nc2cc(-c3cc4cc(-c5ccc6[nH]c([C@@H]7C[C@H](C)CN7C(=O)[C@@H](NC(=O)OC)C(C)C)nc6c5)sc4s3)ccc2[nH]1)C(C)C` [Compound 332], the pEC50 was at least 8.30.
Consider `COC(=O)N[C@H](C(=O)N1CC(F)(F)C[C@H]1c1nc2cc(C#Cc3ccc4nc([C@@H]5CC(F)(F)CN5C(=O)[C@@H](NC(=O)OC)C(C)C)[nH]c4c3)ccc2[nH]1)C(C)C` [Compound 90], for which the pEC50 was at least 8.30.
With `COC(=O)N[C@H](C(=O)N1CCC[C@H]1c1nc2cc(-c3ccc(-c4ccc5nc([C@@H]6CCCN6C(=O)[C@@H](NC(=O)OC)C(C)C)[nH]c5c4)c4ocnc34)ccc2[nH]1)C(C)C` [Compound 173], the pEC50 was at least 8.30.
Regarding `COC(=O)N[C@@H](C)C(=O)N1CCC[C@H]1c1nc2cc(C#Cc3ccc4[nH]c([C@@H]5CCCN5C(=O)[C@H](C)NC(=O)OC)nc4c3)ccc2[nH]1` [Compound 50], the pEC50 is at least 8.30.
In the case of `COC(=O)N[C@H](C(=O)N1C[C@@H](C)C[C@H]1c1nc2ccc(-c3ccc(-c4ccc5nc([C@@H]6C[C@H](C)CN6C(=O)[C@@H](NC(=O)OC)C(C)C)n(C)c5c4)cc3)cc2[nH]1)C(C)C` [Compound 294], the pEC50 is at least 8.30.
Still for that read-out and setting: for `COC(=O)N[C@H](C(=O)N1CCC[C@H]1c1nc2cc(CCc3ccc4[nH]c([C@@H]5CCCN5C(=O)[C@H](NC(=O)OC)C(C)C)nc4c3)ccc2[nH]1)C(C)C` [Compound 116] the value was at least 8.30.
Turning to `COC(=O)N[C@H](C(=O)N1CCC[C@H]1c1nc2cc(-c3ccc(-c4ccc5nc([C@@H]6CCCN6C(=O)[C@@H](NC(=O)OC)C(C)C)[nH]c5c4)cc3C(=O)OC)ccc2[nH]1)C(C)C` [Compound 181], the pEC50 is at least 8.30.
The same measure, in the same setting: to `COC(=O)N[C@H](C(=O)N1CCC[C@H]1c1nc2cc(-c3ccc(-c4ccc5[nH]c([C@@H]6CC(F)(F)CN6C(=O)[C@@H](NC(=O)OC)C(C)C)nc5c4)cc3)ccc2[nH]1)C(C)C` [Compound 187] belongs at least 8.30; to `COC(=O)NC(C(=O)N1C[C@H](O)C[C@H]1c1nc2ccc(-c3ccc(-c4ccc5[nH]c([C@@H]6C[C@@H](O)CN6C(=O)[C@@H](NC(=O)OC)C(C)C)nc5c4)cc3)cc2[nH]1)C(C)C` (stereo in doubt) [Compound 26, ((S)-1-{(2S,4R)-4-Hydroxy-2-[5-(4-{2-[(2S,4R)-4-hydroxy-1-((S)-2-methoxycarbonylamino-3-methyl-butyryl)-pyrrolidin-2-yl]-1H-benzoimidazol-5-yl}-phenyl)-1H-benzoimidazol-2-yl]-pyrrolidine-1-carbonyl}-2-methyl-propyl)-carbamic acid methyl ester], at least 8.30; to `C[C@H](C(=O)N1CCC[C@H]1c1nc2cc(C#Cc3ccc4[nH]c([C@@H]5CCCN5C(=O)[C@@H](C)N5CCCC5=O)nc4c3)ccc2[nH]1)N1CCCC1=O` [Compound 83], at least 8.30.
On the same count and under the same terms, for `COC(=O)N[C@H](C(=O)N1C(C)CC[C@H]1c1nc2cc(-c3ccc(-c4ccc5[nH]c([C@@H]6CCC(C)N6C(=O)[C@@H](NC(=O)OC)C(C)C)nc5c4)cc3)ccc2[nH]1)C(C)C` (stereo partly drawn) [Compound 269] the value was at least 8.30.
